Data from patent publication US10118902B2 (Sanford Burnham Prebys Medical Discovery Institute, priority 2014, dated 2018).

Molecular target: neurotensin receptor 1 (NTR1) (Homo sapiens (Human), UniProt P30989)
Assay: NTR1 dose response, high-content imaging beta-arrestin-GFP assay in NTR1-U2OS cells
Format: cell-based
Conditions: read-out: EC50
Excerpt: The cell lines utilized in the high-content imaging assays, which include the NTR1-, NTR2-, and GPR35-U2OS osteosarcomas, were obtained from the laboratory of Dr. Lawrence Barak at the Duke University Medical Center. The media used in the culture of the cell lines, as well as the assays themselves, consisted of Minimum Essential Medium (15-010-CM) and L-glutamine (25-005-CL) from Cellgro/Mediatech (Manassas, Va.), fetal bovine serum (SH30396.03) from Hyclone (Logan, Utah), penicillin-streptomycin solution (PS-20) from Omega Scientific in Tarzana, Calif., G418 (ant-gn-1) from Invivogen (San Diego, Calif.), and zeocin (R250-01) from Invitrogen (Carlsbad, Calif.). Cell lines were cultured in T225 tissue culture flasks (431082) supplied by Corning (Corning, N.Y.). Additional reagents employed include Dulbecco's Phosphate-Buffered Saline (DPBS) (21-031CV) from Cellgro/Mediatech, Trypsin-EDTA 0.05% (25300) from Invitrogen, paraformaldehyde (30528954) from Acros Organics (Geel, Belgium), Hoechst 33342 (H3570) from Invitrogen. The high-content assays were run in 1536-well plates (29326) supplied by Aurora Biotechnology (Poway, Calif.) and utilized aluminum plate seals (T592100) from E&K Scientific (Santa Clara, Calif.). […]
The high-content imaging based NTR1 primary screen in 1536-well format was utilized to assay the MLSMR library of chemical entities in the following manner. On day one, 4 uL of a cell suspension containing 350,000 NTR1-U2OS cells per mL is added to each well of a 1536-well assay plate. Cells are plated in MEM medium containing 2.5% Fetal Bovine Serum, 1% Penicillin/Streptomycin solution, 1% L-Glutamine, 400 ug/mL G418, and 200 ug/mL Zeocin. The assay plates are then incubated overnight at 37° C., under 5% CO2. Following the overnight incubation, a volume of 60 nL of the compounds at 2 mM in DMSO (final 20 μM, 1% DMSO) was transferred to columns 5-48 of the assay plates using a LabCyte Echo Liquid Handler. Next, 60 nL of DMSO were dispensed to columns 1-4, which served as the positive and neutral control wells. […] The assay plates were centrifuged on an Eppendorf 5810 centrifuge at 1000 rpm for 1 min to ensure even liquid levels in the wells of the assay plates. The assay plates were then returned to the incubator for 1 hour. Following the hour-long incubation at 37° C., the cells in each well were fixed with 4 uL of 6% paraformaldehyde added with a Multidrop Combi. The assay plates were centrifuged as before and incubated at room temperature for 1 hour. On the Kalypsys, plates were then aspirated down to 2.5 uL per well and washed twice with 11 uL per well of DPBS, followed by a final aspiration to 2.5 uL per well. On the Combi dispenser, 5 uL of 5 ug/mL Hoechst 33342 diluted in DPBS was added to each well of assay plates. The plates were again centrifuged as previously described, sealed, and incubated for at least 1 hour prior to being loaded on a PerkinElmer Opera QEHS.
Image acquisition was performed with a 45 plate capacity loader/stacker and the following settings: 40×0.6 NA air objective, acquisition camera set to 2-by-2 binning for an image size of 688 by 512 pixels, beta-arrestin-GFP acquired using 488 nm laser excitation and 540/75 nm emission filters, DAPI (nuclei) using 365 nm Xenon lamp excitation and 450/50 nm emission filters, 3 fields per well. Image analysis was performed using the Acapella Spot Detection Algorithm. For analysis settings and the metrics employed in the data analyses, please refer to supplemental information.
Compounds that were successfully confirmed in quadruplicate at 20 uM were then run in dose response in the primary assay. As with the single concentration hit confirmation, the assay was performed in an identical manner as the primary screen with the following modifications. […]

neurotensin receptor 1 (NTR1), sequence (P30989 whole entry, species assumed): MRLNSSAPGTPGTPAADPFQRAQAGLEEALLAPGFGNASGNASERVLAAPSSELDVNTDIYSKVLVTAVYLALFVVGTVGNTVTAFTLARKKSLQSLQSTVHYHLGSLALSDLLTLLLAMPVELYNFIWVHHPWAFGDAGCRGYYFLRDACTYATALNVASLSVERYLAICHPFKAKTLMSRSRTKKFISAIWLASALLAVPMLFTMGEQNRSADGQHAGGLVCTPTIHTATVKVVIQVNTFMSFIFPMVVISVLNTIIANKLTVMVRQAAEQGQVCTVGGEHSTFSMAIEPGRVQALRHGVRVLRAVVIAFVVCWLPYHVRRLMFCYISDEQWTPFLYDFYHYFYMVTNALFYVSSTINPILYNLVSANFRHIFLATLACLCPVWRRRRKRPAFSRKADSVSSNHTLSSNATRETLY

SMILES | EC50 [nM]
CN(C)c1ccccc1C1CCN(c2nc(C3(C(F)(F)F)CC3)nc3ccc(N(C)CCN4CCOCC4)cc23)CC1 [Example 50, [4-[4-(2-dimethylamino-phenyl)-piperidin-1-yl]-2-(1-trifluoromethyl-cyclopropyl)-quinazolin-6-yl]-methyl-(2-morpholin-4-yl-ethyl)-amine] | > 10000
COc1ccccc1C1CCN(c2nc(C3(C)CCCC3)nc3ccc(N(C)CCO)cc23)CC1 [Example 51, 2-{[4-[4-(2-methoxy-phenyl)-piperidin-1-yl]-2-(1-methyl-cyclopentyl)-quinazolin-6-yl]-methyl-amino}-ethanol] | 2000 to 10000
COc1ccccc1C1CCN(c2nc(C3(C)CCCC3)nc3ccc(N(C)CCN4CCOCC4)cc23)CC1 [Example 52] | 2000 to 10000
CN(C)c1ccccc1C1CCN(c2nc(C3(C)CCCC3)nc3ccc(N(C)CCO)cc23)CC1 [Example 53, {[4-[4-(2-Dimethylamino-phenyl)-piperidin-1-yl]-2-(1-methyl-cyclopentyl)-quinazolin-6-yl]-methyl-amino}-ethanol] | 2000 to 10000
CN(C)c1ccccc1C1CCN(c2nc(C3(C)CCCC3)nc3ccc(N(C)CCN4CCOCC4)cc23)CC1 [Example 54, [4-[4-(2-dimethylamino-phenyl)-piperidin-1-yl]-2-(1-methyl-cyclopentyl)-quinazolin-6-yl]-methyl-(2-morpholin-4-yl-ethyl)-amine] | 2000 to 10000
COc1ccccc1C1CCN(c2nc(C3(C(F)(F)F)CCCC3)nc3ccc(N(C)CCO)cc23)CC1 [Example 55, 2-{[4-[4-(2-methoxy-phenyl)-piperidin-1-yl]-2-(1-trifluoromethyl-cyclopentyl)-quinazolin-6-yl]-methyl-amino}-ethanol] | 2000 to 10000
COc1ccccc1C1CCN(c2nc(C3(C(F)(F)F)CCCC3)nc3ccc(N(C)CCN4CCOCC4)cc23)CC1 [Example 56, [4-[4-(2-methoxy-phenyl)-piperidin-1-yl]-2-(1-trifluoromethyl-cyclopentyl)-quinazolin-6-yl]-methyl-(2-morpholin-4-yl-ethyl)-amine] | 2000 to 10000
CN(C)c1ccccc1C1CCN(c2nc(C3(C(F)(F)F)CCCC3)nc3ccc(N(C)CCO)cc23)CC1 [Example 57, 2-{[4-[4-(2-dimethylamino-phenyl)-piperidin-1-yl]-2-(1-trifluoromethyl-cyclopentyl)-quinazolin-6-yl]-methyl-amino}-ethanol] | 500 to 2000
CN(C)c1ccccc1C1CCN(c2nc(C3(C(F)(F)F)CCCC3)nc3ccc(N(C)CCN4CCOCC4)cc23)CC1 [Example 58, [4-[4-(2-dimethylamino-phenyl)-piperidin-1-yl]-2-(1-trifluoromethyl-cyclopentyl)-quinazolin-6-yl]-methyl-(2-morpholin-4-yl-ethyl)-amine] | 2000 to 10000
COc1ccccc1C1CCN(c2nc(C3(F)CCC3)nc3ccc(N(C)CCO)cc23)CC1 [Example 59, 2-({2-(1-fluoro-cyclobutyl)-4-[4-(2-methoxy-phenyl)-piperidin-1-yl]-quinazolin-6-yl}-methyl-amino)-ethanol] | < 500
COc1ccccc1C1CCN(c2nc(C3(F)CCC3)nc3ccc(N(C)CCN4CCOCC4)cc23)CC1 [Example 60, {2-(1-fluoro-cyclobutyl)-4-[4-(2-methoxy-phenyl)-piperidin-1-yl]-quinazolin-6-yl}-methyl-(2-morpholin-4-yl-ethyl)-amine] | < 500
CN(C)c1ccccc1C1CCN(c2nc(C3(F)CCC3)nc3ccc(N(C)CCO)cc23)CC1 [Example 61, 2-{[4-[4-(2-dimethylamino-phenyl)-piperidin-1-yl]-2-(1-fluoro-cyclobutyl)-quinazolin-6-yl]-methyl-amino}-ethanol] | < 500
CN(C)c1ccccc1C1CCN(c2nc(C3(F)CCC3)nc3ccc(N(C)CCN4CCOCC4)cc23)CC1 [Example 62, [4-[4-(2-dimethylamino-phenyl)-piperidin-1-yl]-2-(1-fluoro-cyclobutyl)-quinazolin-6-yl]-methyl-(2-morpholin-4-yl-ethyl)-amine] | 500 to 2000
COc1ccccc1C1CCN(c2nc(C3(C(F)(F)F)CCC3)nc3ccc(N(C)CCO)cc23)CC1 [Example 63, 2-{[4-[4-(2-methoxy-phenyl)-piperidin-1-yl]-2-(1-trifluoromethyl-cyclobutyl)-quinazolin-6-yl]-methyl-amino}-ethanol] | 500 to 2000
COc1ccccc1C1CCN(c2nc(C3(C(F)(F)F)CCC3)nc3ccc(N(C)CCN4CCOCC4)cc23)CC1 [Example 64, [4-[4-(2-methoxy-phenyl)-piperidin-1-yl]-2-(1-trifluoromethyl-cyclobutyl)-quinazolin-6-yl]-methyl-(2-morpholin-4-yl-ethyl)-amine] | > 10000
CN(C)c1ccccc1C1CCN(c2nc(C3(C(F)(F)F)CCC3)nc3ccc(N(C)CCO)cc23)CC1 [Example 65, 2-{[4-[4-(2-Dimethylamino-phenyl)-piperidin-1-yl]-2-(1-trifluoromethyl-cyclobutyl)-quinazolin-6-yl]-methyl-amino}-ethanol] | 2000 to 10000
CN(C)c1ccccc1C1CCN(c2nc(C3(C(F)(F)F)CCC3)nc3ccc(N(C)CCN4CCOCC4)cc23)CC1 [Example 66, [4-[4-(2-dimethylamino-phenyl)-piperidin-1-yl]-2-(1-trifluoromethyl-cyclobutyl)-quinazolin-6-yl]-methyl-(2-morpholin-4-yl-ethyl)-amine] | > 10000
CN(C)c1ccccc1C1CCN(c2nc(C3(C)CCC3)nc3ccc(N(C)CCN4CCOCC4)cc23)CC1 [Example 67, [4-[4-(2-dimethylamino-phenyl)-piperidin-1-yl]-2-(1-methyl-cyclobutyl)-quinazolin-6-yl]-methyl-(2-morpholin-4-yl-ethyl)-amine] | > 10000
CN(C)c1ccccc1C1CCN(c2nc(C3(C)CCC3)nc3ccc(N(C)CCO)cc23)CC1 [Example 68, 2-{[4-[4-(2-dimethylamino-phenyl)-piperidin-1-yl]-2-(1-methyl-cyclobutyl)-quinazolin-6-yl]-methyl-amino}-ethanol] | 500 to 2000
COc1ccccc1C1CCN(c2nc(C3(C)CCC3)nc3ccc(N(C)CCN4CCOCC4)cc23)CC1 [Example 69, [4-[4-(2-methoxy-phenyl)-piperidin-1-yl]-2-(1-methyl-cyclobutyl)-quinazolin-6-yl]-methyl-(2-morpholin-4-yl-ethyl)-amine] | 500 to 2000
COc1ccccc1C1CCN(c2nc(C3(C)CCC3)nc3ccc(N(C)CCO)cc23)CC1 [Example 70, 2-{[4-[4-(2-Methoxy-phenyl)-piperidin-1-yl]-2-(1-methyl-cyclobutyl)-quinazolin-6-yl]-methyl-amino}-ethanol] | 500 to 2000
COc1ccccc1C1CCN(c2nc(C3(F)CCCC3)nc3ccc(N(C)CCN4CCOCC4)cc23)CC1 [Example 71, {2-(1fluoro-cyclopentyl)-4-[4-(2-methoxy-phenyl)-piperidin-1-yl]-quinazolin-6-yl}-methyl-(2-morpholin-4-yl-ethyl)-amine] | 2000 to 10000
COc1ccccc1C1CCN(c2nc(C3(F)CCCC3)nc3ccc(N(C)CCO)cc23)CC1 [Example 72, 2-({2-(1-fluoro-cyclopentyl)-4-[4-(2-methoxy-phenyl)-piperidin-1-yl]-quinazolin-6-yl}-methyl-amino)-ethanol] | 500 to 2000
CN(C)c1ccccc1C1CCN(c2nc(C3(F)CCCC3)nc3ccc(N(C)CCN4CCOCC4)cc23)CC1 [Example 73, [4-[4-(2-dimethylamino-phenyl)-piperidin-1-yl]-2-(1-fluoro-cyclopentyl)-quinazolin-6-yl]-methyl-(2-morpholin-4-yl-ethyl)-amine] | 2000 to 10000
